Some test systems named below: A498; ACHN; HCC 2998; HCT-116; HL-60; HT-29; K562; LOX IMVI; NCI-H23; OVCAR-3; RXF 393; SF-268; SK-MEL-28; SK-MEL-5; SR; DU-145; MDA-N; NCI/ADR-RES; PC-3.
What all share (experiment): DTP human tumour cell line panel, 48 h

Molecules are shown by their SMILES. Structures can show the parent of a compound that is named as a salt.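 Grown in 96-well plates, cells were treated for 48 hours with each compound at five concentrations. Insufficient inhibition: endpoint recorded as highest concentration tested. The concentration for 50% growth inhibition is given as GI50.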 Activity calls are given as the source filed them. No stated cut-off is given here; in the data, active = GI50 up to about 1.1 µM and inactive = higher.

One may read the GI50 as the concentration at which growth is held to half of that of the control.

With `O=C1CCCc2ccc([N+](=O)[O-])c(O)c21`, the GI50 in the test on A498 is 50.7 µM (inactive); with ACHN, 48.9 µM (inactive); with HCC 2998, > 100 µM (inactive); in the test with HCT-116, > 100 µM (inactive); in the test on HL-60, 92.5 µM (inactive); in the test with HT-29 it was > 100 µM (inactive). Further, the GI50 in the test with K562 was > 100 µM (inactive); with LOX IMVI, > 100 µM (inactive); with NCI-H23 it was > 100 µM (inactive); with OVCAR-3, > 100 µM (inactive); in the test on RXF 393, 55.1 µM (inactive); with SF-268, 69.8 µM (inactive). Besides, the GI50 in the test with SK-MEL-28 was > 100 µM (inactive); in the test on SK-MEL-5, > 100 µM (inactive); in the test on SR, 85.7 µM (inactive).
Take `C/C(CC(=O)Nc1cccc(C)c1C)=N\NC(N)=S`: the GI50 in the test with A498 was > 100 µM (inactive); with ACHN, > 100 µM (inactive); in the test on HCC 2998, > 100 µM (inactive); with HCT-116, 88.7 µM (inactive); in the test with HL-60 it was > 100 µM (inactive); with HT-29, > 100 µM (inactive). In addition, the GI50 with K562, in the test on LOX IMVI, in the test with NCI-H23, in the test with OVCAR-3, in the test on RXF 393 and in the test on SF-268 was > 100 µM (inactive) in each case. Further, the GI50 is > 100 µM (inactive) in the test on SK-MEL-28, > 100 µM (inactive) in the test on SK-MEL-5 and 26.2 µM (inactive) in the test on SR.
Consider `C[N+](C)(C)CC1CCCC/C1=N\OC(=O)c1ccccc1` (stereo not drawn), for which the GI50 with ACHN, with HCC 2998, with HCT-116, in the test with HT-29, with K562 and with LOX IMVI was > 100 µM (inactive) in each case. For the same molecule, the GI50 in the test on NCI-H23, with OVCAR-3, with RXF 393, in the test on SF-268, in the test on SK-MEL-28 and in the test with SK-MEL-5 was > 100 µM (inactive) each time. Also, the GI50 with SR is > 100 µM (inactive).
Take `O=C(NC/C(Cl)=C/Cl)Nc1c2ccccc2nc2ccccc12`: the GI50 with A498 is 67.1 µM (inactive); in the test with ACHN, 80.5 µM (inactive); in the test on DU-145, 54.5 µM (inactive); in the test on HCC 2998, 86.3 µM (inactive); with HCT-116 it was 24.3 µM (inactive); in the test with HT-29, 53.2 µM (inactive). Further, the GI50 is 61.2 µM (inactive) in the test with LOX IMVI; > 100 µM (inactive) in the test on MDA-N; > 100 µM (inactive) with NCI-H23; 52 µM (inactive) in the test on NCI/ADR-RES; 44.5 µM (inactive) in the test with OVCAR-3; > 100 µM (inactive) in the test on PC-3. Moreover, the GI50 with RXF 393 is > 100 µM (inactive); in the test with SF-268, > 100 µM (inactive); with SK-MEL-28 it was > 100 µM (inactive); in the test with SK-MEL-5, 57.9 µM (inactive); with SR, 20.5 µM (inactive).
For the molecule `COC(=O)c1c(C)cccc1C1CN=NC12Cc1ccc(C)cc1C2=O` (stereo not drawn), the GI50 in the test with A498 was 43.6 µM (inactive); in the test with ACHN, 26.9 µM (inactive); in the test on DU-145, 49 µM (inactive); with HCC 2998 it was 40.9 µM (inactive); in the test with HCT-116, 25 µM (inactive); in the test with HL-60 it was 21.6 µM (inactive). Besides, the GI50 was 31.8 µM (inactive) in the test on HT-29; 29.8 µM (inactive) with K562; 28.6 µM (inactive) in the test with LOX IMVI; 41.4 µM (inactive) with MDA-N; 39.2 µM (inactive) in the test on NCI-H23; 23 µM (inactive) in the test on NCI/ADR-RES. In addition, the GI50 in the test on OVCAR-3 was 38.6 µM (inactive); in the test on PC-3, 39.2 µM (inactive); with RXF 393, 75.9 µM (inactive); in the test on SF-268 it was 50.7 µM (inactive); with SK-MEL-28, 43.4 µM (inactive); with SK-MEL-5 it was 17.5 µM (inactive). The GI50 in the test with SR was 40.2 µM (inactive).
For `O=C(CSc1nc(-c2ccccc2)c(-c2ccccc2)[nH]1)N/N=C/c1ccc(O)cc1`, the GI50 in the test with ACHN was 22.1 µM (inactive); with HCC 2998 it was 19.6 µM (inactive); with HCT-116, 22.5 µM (inactive); in the test on HL-60, 20 µM (inactive); with HT-29 it was 18.9 µM (inactive); in the test with K562, 23.6 µM (inactive). Also, the GI50 was 17.9 µM (inactive) in the test on LOX IMVI; 3.76 µM (inactive) with NCI-H23; 18.2 µM (inactive) with OVCAR-3; 24.2 µM (inactive) with RXF 393; 26.6 µM (inactive) in the test on SF-268; 32.1 µM (inactive) with SK-MEL-28. Moreover, the GI50 with SR is 16.4 µM (inactive).
Turning to `COc1ccc(C2=C(Cl)C(=O)O/C2=C\c2ccc(OC)c(Br)c2)cc1Cl`, the GI50 with A498 was 17.3 µM (inactive); with ACHN, 16.3 µM (inactive); in the test on DU-145 it was 74.6 µM (inactive); with HCC 2998, 57.9 µM (inactive); in the test with HCT-116 it was 23.5 µM (inactive); with HL-60 it was > 100 µM (inactive). The GI50 with HT-29 was > 100 µM (inactive); in the test on K562, 35.2 µM (inactive); in the test on LOX IMVI, 58.9 µM (inactive); in the test with MDA-N it was > 100 µM (inactive); in the test on NCI-H23 it was 16.3 µM (inactive); in the test with NCI/ADR-RES, 37.8 µM (inactive). Further, the GI50 in the test with OVCAR-3 was 23 µM (inactive); with PC-3, 39.1 µM (inactive); in the test with RXF 393 it was 18.3 µM (inactive); in the test with SF-268, 16.5 µM (inactive); in the test on SK-MEL-28, > 100 µM (inactive); with SK-MEL-5 it was > 100 µM (inactive). The GI50 with SR is 51.8 µM (inactive).
On to `S=P(c1ccccc1)(c1ccccc1)C1(C2(P(=S)(c3ccccc3)c3ccccc3)CC2)CC1`, for which the GI50 in the test on ACHN, with HCC 2998, in the test on HCT-116, in the test with HT-29, in the test on K562 and in the test with LOX IMVI was > 100 µM (inactive) each time. In addition, the GI50 in the test with NCI-H23, in the test with RXF 393, with SF-268, with SK-MEL-28, in the test on SK-MEL-5 and with SR was > 100 µM (inactive) in each case.
Consider `COC(=O)c1cccc2cccc(C(=O)Nc3ccc(Cl)cc3)c12`, for which the GI50 in the test on A498 was 36.1 µM (inactive); in the test with ACHN, 2.92 µM (inactive); in the test on HCC 2998, 6.17 µM (inactive); in the test with HCT-116 it was > 35.1 µM (inactive); with HL-60, 0.706 µM (active); with K562, 0.142 µM (active). The GI50 in the test with LOX IMVI is 0.664 µM (active); with NCI-H23, 12.7 µM (inactive); with OVCAR-3, 29.2 µM (inactive); with RXF 393, > 100 µM (inactive); in the test with SF-268, > 68.7 µM (inactive); with SK-MEL-28, > 100 µM (inactive). The GI50 with SK-MEL-5 was 0.336 µM (active); in the test with SR it was 17.1 µM (inactive).
`CN(C)CCOC(c1ccccc1)c1ccccc1` [DIPHENHYDRAMINE HYDROCHLORIDE]: the GI50 with ACHN, in the test with DU-145, with HCC 2998, in the test on HCT-116, in the test on HL-60 and in the test with HT-29 was > 100 µM (inactive) in each case. In addition, the GI50 with K562, in the test on LOX IMVI, in the test with MDA-N, in the test with NCI-H23, in the test with NCI/ADR-RES and in the test with OVCAR-3 was > 100 µM (inactive) each time. Also, the GI50 in the test with PC-3 was > 100 µM (inactive); in the test on SK-MEL-28, > 100 µM (inactive); in the test with SK-MEL-5, > 100 µM (inactive); in the test on SR, 38.5 µM (inactive).
In the case of `Cc1noc2cccc(O)c12`, the GI50 with A498, with ACHN, with HCC 2998, with HCT-116, in the test on HL-60 and in the test on HT-29 was > 100 µM (inactive) each time. Besides, the GI50 in the test on K562, in the test with LOX IMVI, in the test on NCI-H23, in the test with OVCAR-3, in the test on RXF 393 and with SF-268 was > 100 µM (inactive) throughout. Further, the GI50 with SK-MEL-28 and with SK-MEL-5 was > 100 µM (inactive) each time.
For the molecule `CC(C)=CC(=O)Oc1ccc([N+](=O)[O-])cc1`, the GI50 in the test with A498 is > 100 µM (inactive); with ACHN, > 100 µM (inactive); in the test with HCC 2998, > 100 µM (inactive); in the test on HCT-116 it was > 100 µM (inactive); with HL-60, 24.7 µM (inactive); in the test with HT-29, > 100 µM (inactive). Besides, the GI50 with K562, in the test on NCI-H23, in the test on OVCAR-3, in the test on RXF 393, in the test on SF-268 and in the test with SK-MEL-5 was > 100 µM (inactive) throughout. The GI50 in the test with SR was > 100 µM (inactive).
As to `O=S(=O)(/C=C/C(=C/c1ccccc1)S(=O)(=O)c1ccccc1)c1ccccc1`, the GI50 with ACHN is 1.76 µM (inactive); in the test with HCC 2998, 1.95 µM (inactive); in the test with HCT-116 it was 1.72 µM (inactive); in the test with HL-60 it was 0.543 µM (active); in the test on HT-29, 1.73 µM (inactive); in the test with K562 it was 1 µM (active). Moreover, the GI50 in the test with LOX IMVI is 0.658 µM (active); in the test on NCI-H23 it was 1.93 µM (inactive); in the test with OVCAR-3, 1.73 µM (inactive); with RXF 393, 1.73 µM (inactive); with SF-268, 1.91 µM (inactive); with SK-MEL-28 it was 1.49 µM (inactive). Further, in the test on SR, the GI50 was 1.51 µM (inactive).

(Values after ChEMBL document CHEMBL1201862, “PubChem BioAssay data set” (2004).)
